# Ends that are not written are not given here.
# Assays:
# human GIP-R = molecular target: T1, human GIP-R (Homo sapiens, UniProt P48546); assay: Cyclic AMP production in GIP-R transfected CHL cells; format: cell-based
# T1 construct: expressed in transfected cells; host or cells: Chinese Hamster Lung (CHL) fibroblast cells, stably transfected
# T1 sequence (P48546 22-466): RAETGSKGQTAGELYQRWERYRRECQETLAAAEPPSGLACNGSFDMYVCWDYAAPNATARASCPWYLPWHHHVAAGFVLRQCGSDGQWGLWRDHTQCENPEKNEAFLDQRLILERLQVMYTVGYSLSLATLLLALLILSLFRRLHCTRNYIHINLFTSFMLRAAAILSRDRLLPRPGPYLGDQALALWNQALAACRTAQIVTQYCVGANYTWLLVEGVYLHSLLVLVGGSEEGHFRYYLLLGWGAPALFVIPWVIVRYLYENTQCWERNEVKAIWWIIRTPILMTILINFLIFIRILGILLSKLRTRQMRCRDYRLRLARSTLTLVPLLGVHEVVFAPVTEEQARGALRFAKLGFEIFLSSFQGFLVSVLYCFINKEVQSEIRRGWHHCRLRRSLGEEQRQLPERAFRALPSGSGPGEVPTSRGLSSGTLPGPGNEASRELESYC
# In short: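 Cells washed in ice-cold HBS buffer (5.6 mm glucose, pH 7.4), then lysed in TCA/SDS solution with unlabelled cAMP and ATP. Tritiated cAMP formation measured by Dowex and alumina ion-exchange column chromatography.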
# ob/ob mice = assay: 14 once-daily injections of GIP analogues in ob/ob mice; format: in vivo, mouse; details: 14 days daily, insulin 50 U/kg
# Description: Animals. Obese diabetic (ob/ob) mice derived from the colony maintained at Aston University, UK (Bailey C. J. et al., 1982, Int. J. Obes. 6:11-21) were used at 14-18 weeks of age. Animals were age-matched, divided into groups and housed individually in an air-conditioned room at 22±2° C. with a 12 hour light: 12 hour dark cycle (08:00-20:00 hr). Drinking water and a standard rodent maintenance diet (Trouw Nutrition, Cheshire, UK) were freely available. All animal experiments were carried out in accordance with the UK Animals (Scientific Procedures) Act 1986.
# Methods. […] Intraperitoneal glucose tolerance (18 mmol/kg body wt) and insulin sensitivity (50 U/kg body wt) tests were performed at the end of the study period. Blood samples taken from the cut tip of the tail vein of conscious mice at the times indicated in the Figures were immediately centrifuged using a Beckman microcentrifuge (Beckman Instruments, UK) for 30 seconds at 13,000×g. The resulting plasma was then aliquoted into fresh Eppendorf tubes and stored at −20° C. prior to glucose and insulin determinations.
# Swiss TO mice = assay: Daily (Pro3)GIP for 60 days in Swiss TO mice previously fed high fat diet for 160 days; format: in vivo, mouse; details: high fat diet 160 days before, 25 nmoles/kg/day i.p. 60 days
# Description: Parameters were measured at 3-4 daily intervals during a 60 day treatment period, which was preceded by a 160 days of feeding high fat diet. Mice were initially recruited into the study at 6-8 weeks of age. Control animals received standard rodent maintenance diet, 12.99 kj/g, (Harlan, UK) ad libitum. The animals were maintained on the respective diet for the duration of the study. High fat diet comprised 45% fat, 20% protein and 35% carbohydrate (26.15 kj/g) and was available ad libitum. (Special Diet Services, Essex, UK).
# The results are shown in FIGS. 15A-B, which are a set of line graphs. Normal mice were fed the high fat diet indicated above ad libitum from 6-8 weeks of age. Treated groups of mice received intraperitoneal injection of ProGIP (25 nmoles/kg body weight) each day for a further 60 days while receiving the same high fat diet.
sequence,measurement,setting,value
YAPGTFISDYSIAMDKIHQQDFVNWLLAQKGKKNDWKHNITQ [(Pro^3)GIP],EC50,human GIP-R,207 nM
same,remaining activity at 0.1 µM,"human GIP-R; CHL, read-out: cAMP response in presence of 10^-7 M GIP (% GIP max)",66 ± 7%
same,inhibition of GIP-stimulated cAMP production,human GIP-R; in presence of GIP (10^-7 m),significantly inhibited
same,hypoglycemic action of insulin,ob/ob mice,significantly augmented
same,body weight,Swiss TO mice,promotes body weight loss
same,energy intake,Swiss TO mice,not associated with significant decrease in energy intake
